# In US20240180972A1, “HUMAN PLURIPOTENT STEM CELL-DERIVED SECRETOME AS A BIOLOGIC FOR PREVENTION AND TREATMENT OF NEURODEGENERATIVE AND APOPTOTIC DISEASES” (The Regents of the University of California, priority 2021, published 2024):
# Key:
# [1] = tested on: human motor neurons (MNs); experiment: MTT viability and Annexin V apoptosis assays of human motor neurons exposed to H2O2; type: cell-based
# Protocol: The process of MNP and MN differentiation was as published (61). Briefly, hPSCs were detached by 0.5 mM EDTA and split 1:10 on Matrigel-coated plates (1:50 dilution). After one day, the Essential 8 was changed to neural inducing medium containing neural basal medium (NBM) plus 3 μM CHIR99021 (Tocris), 2 μM LDN-193189 (Tocris) and 3 μM SB431542 (Stemgent). The NBM is composed of DMEM/F12, Neurobasal medium (FisherScientific) at 1:1, N2, B27, 0.1 mM ascorbic acid (Millipore-Sigma), 1× Glutamax and 1× penicillin/streptomycin (all from Invitrogen). The inducing medium was maintained for 5 days and changed every other day. On day 5, the cultured cells were split at 1:6 with Accutase and cultured in NBM containing 3 μM CHIR99021, 2 μM SB431542, 0.1 μM retinoic acid (RA, Stemgent) and 0.5 μM purmorphamine (Pur, Stemgent). […]
# […] A SpectraMax iD3 Multi-Mode Microplate Reader (Molecular Devices) was used for measuring fluorescence intensity (560/590 nm).
# The apoptotic assay of fibroblasts was by Annexin V-CF Blue/7-AAD Apoptosis Detection Kit (ab214663, Abcam) according to the manufacturer's protocol. […] Finally, the stained samples were analyzed on a Guava Easycyte Flowcytometer (Millipore-Sigma) at an excitation wavelength of 488 nm and emission wavelengths of 525 and 625 nm. […] The stained plate was analyzed on a SpectraMax iD3 Multi-Mode Microplate Reader (495/525 nm). […]
# IMR90 fibroblasts = experiment: MTT viability assay of IMR90 fibroblasts (H2O2, hESC-CM, dF-CM); type: cell-based; conditions: 200 μM H2O2
# Text: hESC conditioned medium was previously shown to enhance myogenic and neurogenic responses of tissue precursor cells (43, 44), but the effects on cell viability were less studied. We decided to explore a protective role of hESC conditioned medium (hESC-CM) when cells experience oxidative damage, which is physiologically and clinically relevant in a number of human diseases (56, 57). To set up this experimental system, we first performed dose response studies in IMR90 fibroblasts to varying concentrations of H2O2 and of hESC-CM using an MTT assay.
# We then tested eight experimental cohorts, e.g., 200 μM H2O2 alone or in combination with 30% hESC-CM or CM from hESC-derived fibroblasts (dF-CM) (43) and controls for the various culture medium formulations (FIG. 1, panel C).
# When cells were grown to 70% confluence, they were subcultured at 1/5 dilution for later passaging.
# After H2O2 and/or CM or CM-derived factors treatment, the number of viable cells was determined by a resorufin based assay using the commercially available CellTiter-Blue® cell viability assay (G8080, Promega), as per the manufacturer's protocol. MNs were cultured in a 96-well plate at a cell density of 2×10^4 and treated with H2O2 and/or CMs for 24 hours before performing the viability assay. A SpectraMax iD3 Multi-Mode Microplate Reader (Molecular Devices) was used for measuring fluorescence intensity (560/590 nm). […]
# OCT4, NANOG = experiment: Pluripotency marker expression (qRT-PCR) in iPSCs after epigenetic modifiers; type: cell-based, human; conditions: iPSCs treated 3 days: 5 μM Nanomycin A, 10 μM LSD1 inhibitor, 5 μM 5-Azacytidine, 10 μM GSK126
# Protocol: Total RNA was extracted using the RNeasy mini kit (Qiagen), and the SuperScript III First-Strand Synthesis System (Invitrogen) was used to synthesize cDNA according to the manufacturer's instructions. Real-time PCR was performed on a Bio-Rad iQ5 real-time PCR machine.
# (§1) For the collection of CM, separate cultures of hiPSCs were set up for 3 days with one of the following small molecules: 5 μM Nanomycin A (A8191, Apexbio), 10 μM LSD1 inhibitor (489476, Millipore-Sigma), 5 μM 5-Azacytidine (C832A53, Thomas Scientific), and 10 μM GSK126 (67-905, Tocris). After 3 days of treatment, CM was collected (without the inhibitors) using the same protocol as described above.
# ALS-MNPs = experiment: Viability (MTT) and apoptosis (Annexin V) of H2O2 exposed ALS-MNPs, incl. epigenetic inhibitors screen; type: cell-based, human
# Protocol: […] MNs were cultured in a 96-well plate at a cell density of 2×10^4 and treated with H2O2 and/or CMs for 24 hours before performing the viability assay. A SpectraMax iD3 Multi-Mode Microplate Reader (Molecular Devices) was used for measuring fluorescence intensity (560/590 nm).
# The apoptosis assay of fibroblasts was by Annexin V-CF Blue/7-AAD Apoptosis Detection Kit (ab214663, Abcam) according to the manufacturer's protocol. Briefly, cells were detached using 0.05% trypsin and washed twice with PBS. Then, samples were resuspended in 1× annexin-binding buffer and incubated with 5 μL Annexin V-FITC and 5 μL 7-amino-actinomycin D (7AAD) for 15 min at 37° C., avoiding light. Finally, the stained samples were analyzed on a Guava Easycyte Flowcytometer (Millipore-Sigma) at an excitation wavelength of 488 nm and emission filters of 525 and 625 nm. For MNs, the apoptotic assay was conducted on two different markers, FITC-conjugated-annexinV (ab201540) or Cleaved caspase 3 (9669S). For annexinV detection, MNs in 96-well plates were washed twice with PBS. Then, 100 μL Annexin V binding buffer was added with 5 μL Annexin V-FITC for 5 min incubation at 37° C., avoiding light. The stained plate was analyzed on a SpectraMax iD3 Multi-Mode Microplate Reader (490/525 nm). For the Cleaved caspase 3, the immunofluorescence protocol was used.
# as §1
# Based on the absence of neuroprotective activity in the differentiated progeny of iPSCs, we decided to confirm and mechanistically extrapolate the relationship between the protective effects and pluripotency. […] To follow on the requirement for pluripotency, we employed a screen with inhibitors of pluripotency that modify the epigenetic states of iPSCs. […]
# [2] = iPSCs treated 3 days with 10 μM GSK126 before CM collection, N=4, P<0.01
smiles,measurement,setting,value
OO [H2O2],Viability (MTT) of human MNs with H2O2 alone or co-treated with CM or fraction,"[1]; H2O2, 200 μg/ml HBPs, unfractionated CM, N=4",0.49±0.01
same,Motor neuron viability after H2O2 treatment,"[1]; human MNs, 200 μM H2O2",below 50%
same,Cell viability (MTT) after H2O2 treatment,IMR90 fibroblasts,below 50%
same,"Cell viability after H2O2 treatment, normalized to the values at the 0 concentration",IMR90 fibroblasts,below 0.5
"C[C@@H]1O[C@@H](CC(=O)O)CC2=C1C(=O)c1c(O)cccc1C2=O [NaA, Nanomycin A]",Expression of OCT4 compared to the untreated groups (WTC11 and CS07),"OCT4, NANOG",significantly decreased
"Nc1ncn([C@@H]2O[C@H](CO)[C@@H](O)[C@H]2O)c(=O)n1 [5Aza, 5-Azacytidine]",Expression of OCT4 compared to the untreated groups (WTC11 and CS07),"OCT4, NANOG",significantly decreased
CC[C@H](C)n1cc(C)c2c(C(=O)NCc3c(C)cc(C)[nH]c3=O)cc(-c3ccc(N4CCNCC4)nc3)cc21 [GSK126],Effect of treating ALS iPSCs with the epigenetic inhibitor on the neuroprotective activity of their CM,"ALS-MNPs; MNPs exposed to H2O2, pre-treated with CM",significantly reduced the neuroprotective activity
same,Apoptosis (Annexin V) of H2O2 exposed ALS-MNPs treated with CM of ALS iPSCs without or with inhibitor pre-treatment,ALS-MNPs; [2],2.65±0.23
same,Viability (MTT) of H2O2 exposed ALS-MNPs treated with CM of ALS iPSCs without or with inhibitor pre-treatment,ALS-MNPs; [2],0.47±0.02
same,Expression of OCT4 compared to the untreated groups (WTC11 and CS07),"OCT4, NANOG",the decrease was not significant
